What is called IC50 is the midpoint of a concentration-inhibition curve.

These results are taken from US6596719B1 (Actelio Pharmaceuticals Ltd., priority 1999, dated 2003).

Like-named read-outs stand apart in the source and are kept apart here.

In experiment [1] the target is T1, human recombinant ETA receptors (Homo sapiens, UniProt P25101).
T1 construct: expressed in transfected cells; host or cells: CHO cells (microsomal membranes)
T1 sequence (P25101 21-427): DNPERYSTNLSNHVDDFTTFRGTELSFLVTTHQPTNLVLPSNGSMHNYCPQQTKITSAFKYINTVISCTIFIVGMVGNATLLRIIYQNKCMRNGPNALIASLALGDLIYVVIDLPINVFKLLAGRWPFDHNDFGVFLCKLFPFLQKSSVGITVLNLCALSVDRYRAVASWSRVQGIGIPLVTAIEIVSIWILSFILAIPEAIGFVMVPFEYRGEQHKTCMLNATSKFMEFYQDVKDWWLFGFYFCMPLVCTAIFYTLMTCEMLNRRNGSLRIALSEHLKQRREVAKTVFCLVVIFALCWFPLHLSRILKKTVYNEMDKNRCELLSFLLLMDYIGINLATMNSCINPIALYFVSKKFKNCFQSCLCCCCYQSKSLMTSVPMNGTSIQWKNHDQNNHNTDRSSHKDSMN
As to the kind of experiment: Inhibition of endothelin binding to membranes from CHO cells carrying human ET receptors (ETA).

The target of experiment [2] is T2, human recombinant ETB receptors (Homo sapiens, UniProt P24530).
T2 construct: expressed in transfected cells; host or cells: CHO cells (microsomal membranes)
T2 sequence (P24530 27-442): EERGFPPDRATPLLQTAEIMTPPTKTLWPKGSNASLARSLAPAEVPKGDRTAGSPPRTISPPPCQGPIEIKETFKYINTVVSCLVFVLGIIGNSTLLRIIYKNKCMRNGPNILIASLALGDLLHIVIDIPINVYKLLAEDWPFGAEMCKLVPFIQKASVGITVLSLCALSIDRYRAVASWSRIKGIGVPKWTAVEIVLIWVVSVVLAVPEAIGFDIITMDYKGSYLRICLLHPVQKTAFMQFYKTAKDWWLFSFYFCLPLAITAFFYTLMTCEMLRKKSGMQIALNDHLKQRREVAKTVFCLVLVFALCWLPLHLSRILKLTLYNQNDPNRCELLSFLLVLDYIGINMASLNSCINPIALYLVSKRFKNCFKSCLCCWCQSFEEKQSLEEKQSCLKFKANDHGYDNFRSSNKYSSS
As to the kind of experiment: Inhibition of endothelin binding to membranes from CHO cells carrying human ET receptors (ETB). The protocol: 1) Inhibition of Endothelin Binding to Membranes from CHO Cells Carrying Human ET Receptors:
For competition binding studies, membranes of CHO cells expressing human recombinant ETA or ETB receptors were used. Microsomal membranes from recombinant CHO cells were prepared and the binding assay made as previously described (Breu V., et al, FEBS Lett 1993; 334:210).
The assay was performed in 200 uL 50 mM Tris/HCl buffer, pH 7.4, including 25 mM MnCl2, 1 mM EDTA and 0.5% (w/v) BSA in polypropylene microtiter plates. […]. […] After two h, the membranes were filtered on, filterplates containing GF/C filters (Unifilterplates from Canberra Packard S. A. Zürich, Switzerland). To each well, 50 uL of scintillation cocktail was added (MicroScint 20, Canberra Packard S. A. Zürich, Switzerland) and the filter plates counted in a microplate counter (TopCount, Canberra Packard S. A. Zürich, Switzerland).
All the test compounds were dissolved, diluted and added in DMSO. […] […].

Where [3] appears, read: membranes of CHO cells expressing human recombinant ETA receptors, 8 pM [125I]ET-1, 2 h at 20° C.
[4] abbreviates: membranes of CHO cells expressing human recombinant ETB receptors, 8 pM [125I]ET-1, 2 h at 20° C.

For the compound `COc1ccccc1Oc1c(NS(=O)(=O)c2ccc(C(C)C)cn2)nc(C)nc1OCCNS(C)(=O)=O` [Example 23, 5-i.-propyl-N-[6-(ethoxy-2-methanesulfonamido)-5-(o-methoxyphenoxy)-2-methyl-4-pyrimidinyl]pyridine-2-sulfonamide], the results for the IC50 in experiment [1] and in experiment [2] were 76.1 nM and 52.7 nM, respectively.

Turning to `COc1ccccc1Oc1c(NS(=O)(=O)c2ccc(C(C)(C)C)cc2)ncnc1OCCNS(=O)(=O)c1ccc(Br)cc1` [Example 27, 4-tert.-butyl-N-{6-[2-(4-bromobenzenesulfonyl-amino)-ethoxy]-5-(o-methoxy-phenoxy)-pyrimidin-4-yl}-benzenesulfonamide], the IC50 was 3630 nM in experiment [1] and 995 nM in experiment [2].

For the compound `COc1ccccc1Oc1c(NS(=O)(=O)c2ccc(C(C)(C)C)cc2)ncnc1OCCNS(=O)(=O)c1ccc(C)cc1` [Example 28, 4-tert.-butyl-N-{6-[2-(4-methylbenzenesulfonyl-amino)-ethoxy]-5-(o-methoxy-phenoxy)-pydmidin-4-yl}-benzenesulfonamide], the values for the IC50 in experiment [1] and in experiment [2] were 3710 nM and 1040 nM, respectively.

Consider `COc1ccccc1Oc1c(NS(=O)(=O)c2ccc(C(C)(C)C)cc2)ncnc1OCCNS(=O)(=O)c1cccs1` [Example 29, 4-tert.-butyl-N-{6-[2-(2-thiophenesulfonyl-amino)-ethoxy]-5-(o-methoxy-phenoxy)-pydmidin-4-yl}-benzenesulfonamide], for which the IC50 in experiment [1] came to 1250 nM; in experiment [2], 235 nM.

For the compound `CCCS(=O)(=O)NCCOc1ncnc(NS(=O)(=O)c2ccc(C(C)(C)C)cc2)c1Oc1ccccc1OC` [Example 30, 4-tert.-butyl-N-{6-[2-(1-propanesulfonyl-amino)-ethoxy]-5-(o-methoxy-phenoxy)-pyrimidin-4-yl}-benzenesulfonamide], the IC50 in experiment [1] was determined as 484 nM; in experiment [2], 288 nM.

With `CCS(=O)(=O)NCCOc1ncnc(NS(=O)(=O)c2ccc(C(C)(C)C)cc2)c1Oc1ccccc1OC` [Example 31, 4-tert.-butyl-N-{6-[2-(ethanesulfonylamino)-ethoxy]-5-(o-methoxy-phenoxy)-pydmidin-4-yl}-benzenesulfonamide], the values for the IC50 in experiment [1] and in experiment [2] were 409 nM and 735 nM, respectively.

With `CCS(=O)(=O)NCCOc1nc(SC)nc(NS(=O)(=O)c2ccc(C(C)(C)C)cc2)c1Oc1ccccc1OC` [Example 36f, 4-tert.-butyl-N-[6-(2-ethanesulfonylamino-ethoxy)-5-(o-methoxyphenoxy)-2-methylsulfanyl-pyrimidin-4-yl]-benzenesulfonamide], the IC50 in experiment [1] was 478 nM; in experiment [2], 1210 nM.

As for `CCS(=O)(=O)NCCOc1nc(S(C)(=O)=O)nc(NS(=O)(=O)c2ccc(C(C)(C)C)cc2)c1Oc1ccccc1OC` [Example 36g], the IC50 is 121 nM in experiment [1] and 93 nM in experiment [2].

For `COc1ccccc1Oc1c(NS(=O)(=O)c2ccc(C(C)(C)C)cc2)nc(SC)nc1OCCNS(=O)(=O)c1ccc(C)cc1` [Example 37, 4-tert.-butyl-N-[6-(2-p-toluenesulfonylamino-ethoxy)-5-(o-methoxyphenoxy)-2-methylsulfanyl-pyrimidin-4-yl]-benzenesulfonamide], the IC50 was determined as 5680 nM in experiment [1] and 604 nM in experiment [2].

Regarding `COc1ccccc1Oc1c(NS(=O)(=O)c2ccc(C(C)C)cn2)nc(C2CC2)nc1OCCNS(=O)(=O)c1ccc(C)cc1` [Example 39, 5-i-propyl-N-[6-(2-(4-methylbenzene)-sulfonylamino-ethoxy)-5-(o-methoxyphenoxy)-2-cyclopropyl-pyrimidin-4-yl]-pyridine-2-sulfonamide], the figures for the IC50 in experiment [1] (setting [3]) and in experiment [2] (setting [4]) were 1050 nM and 81 nM, respectively.

Consider `COc1ccccc1Oc1c(NS(=O)(=O)c2ccc(C(C)(C)C)cc2)nc(C2CC2)nc1OCCNS(=O)(=O)C(C)C` [Example 40, 4-tert.-butyl-N-[6-(2-(2-propane)-sulfonylamino-ethoxy)-5-(o-methoxyphenoxy)-2-cyclopropyl-pyrimidin-4-yl]-benzene-sulfonamide], for which the IC50 is 76 nM in experiment [1] and 87 nM in experiment [2].

For `COc1ccccc1Oc1c(NS(=O)(=O)c2ccc(C(C)(C)C)cc2)nc(C2CC2)nc1OCCNS(=O)(=O)c1ccc(C)cc1` [Example 41], the IC50 amounted to 4900 nM in experiment [1] (setting [3]) and 299 nM in experiment [2] (setting [4]).

With `COc1ccccc1Oc1c(NS(=O)(=O)c2ccc(C(C)C)cn2)nc(N2CCOCC2)nc1OCCNS(=O)(=O)c1cccs1` [Example 42, 5-isopropyl-N-[6-(2-(2-thiophensulfonyl)-amino-ethoxy)-5-(o-methoxyphenoxy)-2-(N-morpholino)-4-pyrimidinyl]-2-pyridine sulfonamide], the IC50 in experiment [1] (setting [3]) was found to be 587 nM; in experiment [2] (setting [4]) it was 99 nM.

`CCS(=O)(=O)NCCOc1nc(C2CC2)nc(NS(=O)(=O)c2ccc(C(C)C)cn2)c1Oc1ccccc1OC` [Example 43, 5-i-propyl-N-[6-(2-ethanesulfonylamino-ethoxy)-5-(o-methoxyphenoxy)-2-cyclopropyl-pyrimidin-4-yl]-pyridine-2-sulfonamide]: the IC50 in experiment [1] came out at 75 nM; in experiment [2] it was 376 nM.

As to `CCS(=O)(=O)NCCOc1nc(C2CC2)nc(NS(=O)(=O)c2ccc(C(C)(C)C)cc2)c1Oc1ccccc1OC` [Example 44, 4-tert.-butyl-N-[6-(2-ethanesulfonylamino-ethoxy)-5-(o-methoxyphenoxy)-2-cyclopropyl-pyrimidin-4-yl]-benzene-sulfonamide], the IC50 in experiment [1] (setting [3]) stood at 119 nM; in experiment [2] (setting [4]), 323 nM.

Take `COc1ccccc1Oc1c(NS(=O)(=O)c2ccc(C(C)C)cn2)nc(N2CCOCC2)nc1OCCNS(C)(=O)=O` [Example 45, 5-isopropyl-N-[6-(2-methanesulfonylamino-ethoxy)-5-(o-methoxyphenoxy)-2-(N-morpholino)-4-pyrimidinyl]-2-pyridine sulfonamide]: the IC50 came to 251 nM in experiment [1] and 336 nM in experiment [2].

Consider `CCCS(=O)(=O)NCCOc1nc(N2CCOCC2)nc(NS(=O)(=O)c2ccc(C(C)C)cn2)c1Oc1ccccc1OC` [Example 46, 5-isopropyl-N-[6-(2-(1-propane)sulfonylamino-ethoxy)-5-(o-methoxyphenoxy)-2-(N-morpholino)-4-pyrimidinyl]-2-pyridine sulfonamide], for which the IC50 in experiment [1] (setting [3]) came to 140 nM; in experiment [2] (setting [4]), 103 nM.

As to `CCCCS(=O)(=O)NCCOc1nc(C(F)(F)F)nc(NS(=O)(=O)c2ccc(C(C)C)cn2)c1Oc1ccccc1OC` [Example 49, 5-i.-propyl-N-[6-(2-butanesulfonylamino-ethoxy)-5-(o-methoxyphenoxy)-2-trifluoromethyl-4-pyrimidinyl]pyridine-2-sulfonamide], the values for the IC50 in experiment [1] and in experiment [2] were 1030 nM and 274 nM, respectively.

For the compound `COc1ccccc1Oc1c(NS(=O)(=O)c2ccc(C(C)(C)C)cc2)nc(-c2ccncc2)nc1OCCNS(=O)(=O)c1cccs1` [Example 51, 4-tert.-butyl-N-[6-(2-(thiophene-2-sulfonylamino)-ethoxy)-5-(o-methoxyphenoxy)-2-(4-pyridyl)-4-pyrimidinyl]-benzene-sulfonamide], the IC50 in experiment [1] was determined as 3450 nM; in experiment [2], 182 nM.

Turning to `COc1ccccc1Oc1c(NS(=O)(=O)c2ccc(C(C)C)cn2)nc(C(F)(F)F)nc1OCCNS(=O)(=O)c1cccs1` [Example 54, 5-i.-propyl-N-[6-(2-((2-thiophene)-sulfonylamino)-ethoxy)-5-(o-methoxyphenoxy)-2-trifluoromethyl-4-pyrimidinyl]pyridine-2-sulfonamide], the IC50 in experiment [1] was 2410 nM; in experiment [2] it was 603 nM.

As for `COc1ccccc1Oc1c(NS(=O)(=O)c2ccc(C)cn2)nc(N2CCOCC2)nc1OCCNS(=O)(=O)c1ccccc1` [Example 57, 5-methyl-N-[6-(2-(benzenesulfonylamino)-ethoxy)-5-(o-methoxyphenoxy)-2-(N-morpholino)-4-pyrimidinyl]-2-pyridine sulfonamide], the values for the IC50 in experiment [1] and in experiment [2] were 1620 nM and 208 nM, respectively.
